For 34 molecules, EC50 results are on record in patent US20240101546A1, “HETEROARYL-ACETYLENES, PHARMACEUTICAL COMPOSITIONS THEREOF, AND THEIR THERAPEUTIC APPLICATIONS” (Eubulus Biotherapeutics Inc., priority 2020, published 2024).

Each structure is given as a SMILES string.

In one assay the test system is lung cancer cell line NCI-H82. Put plainly: Cell proliferation assay, NCI-H82 (CELL-TITER GLO). The assay is classed as cell-based. As to conditions: Homo sapiens, NCI-H82, 72 h, NCI-H82 cells, 72 h incubation, cell viability by CELL-TITER GLO, top concentration 1 μM; read-out: EC50, Inhibition of NCl-H82 Cell Proliferation. Summed up:
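NCI-H82 cells, 1,000 per well in RPMI1640, were treated after overnight plating with a 3-fold dilution series from 1 μM. Viability read by CellTiter-Glo luminescence after 72 h. EC50 derived from the curves.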
`C#Cc1nc(NC(=O)N[C@@H](COC(N)=O)c2ccc(-c3cccc(C4(C#N)CC4)c3)cn2)cs1` [Compound A236, (R)-2-(5-(3-(1-Cyanocyclopropyl)phenyl)pyridin-2-yl)-2-(3-(2-ethynylthiazol-4-yl)ureido)ethyl carbamate]: the EC50 was ≤ 0.2 µM.

On to `C#Cc1nc(NC(=O)N[C@@H](CO)c2ccc(N3CCCC3=O)cc2)cs1` [Compound A129, (R)-1-(2-Ethynylthiazol-4-yl)-3-(2-hydroxy-1-(4-(2-oxopyrrolidin-1-yl)phenyl)-ethyl)urea], for which the EC50 is ≤ 0.2 µM.

On to `C#Cc1nnc(NC(=O)N[C@@H](CO)c2ccc(-c3cccc(N4CCCC4)n3)cn2)s1` [Compound A96, (R)-1-(5-Ethynyl-1,3,4-thiadiazol-2-yl)-3-(2-hydroxy-1-(6-(pyrrolidin-1-yl)-[2,3′-bipyridin]-6′-yl)ethyl)urea], for which the EC50 was ≤ 0.2 µM.

Take `C#Cc1nc(NC(=O)N[C@@H](CO)C2CCN(c3ccccc3C#N)CC2)cs1` [Compound A150, (R)-1-(1-(1-(2-Cyanophenyl)piperidin-4-yl)-2-hydroxyethyl)-3-(2-ethynylthiazol-4-yl)urea]: the EC50 is ≤ 0.2 µM.

Regarding `C#Cc1nc(NC(=O)N2CCN(c3ccc(-c4cccc5c4cnn5C)cc3)CC2)cs1` [Compound B18, N-(2-Ethynylthiazol-4-yl)-4-(4-(1-methyl-1H-indazol-4-yl)phenyl)piperazine-1-carboxamide], the EC50 is ≤ 0.2 µM.

On to `C#Cc1nc(NC(=O)Nc2ncnc3c(F)c(-c4c(F)cccc4OC)c(Cl)cc23)cs1` [Compound A162, 1-(6-Chloro-8-fluoro-7-(2-fluoro-6-methoxyphenyl)quinazolin-4-yl)-3-(2-ethynylthiazol-4-yl)urea], for which the EC50 is ≤ 0.2 µM.

On to `C#Cc1nc(NC(=O)N[C@@H](CO)C(=O)N2CC(c3ccccc3C#N)C2)cs1` [Compound A145, (S)-1-(1-(3-(2-Cyanophenyl)azetidin-1-yl)-3-hydroxy-1-oxopropan-2-yl)-3-(2-ethynylthiazol-4-yl)urea], for which the EC50 is 0.2 to 1 µM.

Turning to `C#Cc1nc(NC(=O)NCc2ccc(-c3cncc(N4CCCC4)c3)cc2)cs1` [Compound A174, 1-(2-Ethynylthiazol-4-yl)-3-(4-(5-(pyrrolidin-1-yl)pyridin-3-yl)benzyl)urea], the EC50 is ≤ 0.2 µM.

Consider `C#Cc1nc(NC(=O)N(C)[C@@H](CO)c2ccc(-c3cccnc3C3(C#N)CC3)c(Cl)c2)cs1` [Compound A67, (R)-1-(1-(3-Chloro-4-(2-(1-cyanocyclopropyl)pyridin-3-yl)phenyl)-2-hydroxy-ethyl)-3-(2-ethynylthiazol-4-yl)-1-methylurea], for which the EC50 is ≤ 0.2 µM.

Consider `C#Cc1nc(NC(=O)N2CCN(c3ccc(-c4cccc5nnsc45)cc3)CC2)cs1` [Compound B28, 4-(4-(Benzo[d][1,2,3]thiadiazol-7-yl)phenyl)-N-(2-ethynylthiazol-4-yl)piperazine-1-carboxamide], for which the EC50 was ≤ 0.2 µM.

In the case of `C#Cc1nc(NC(=O)N[C@H](C(=O)NC)c2ccc(-c3cccc4ncsc34)cc2)cs1` [Compound A216, (S)-2-(4-(Benzo[d]thiazol-7-yl)phenyl)-2-(3-(2-ethynylthiazol-4-yl)ureido)-N-methylacetamide], the EC50 was ≤ 0.2 µM.

As to `C#Cc1nc(NC(=O)N[C@@H](CO)c2ccc(-c3cccc(N4CCCC4)c3)cc2)cs1` [Compound A42, (R)-1-(2-Ethynylthiazol-4-yl)-3-(2-hydroxy-1-(3′-(pyrrolidin-1-yl)-[1,1′-biphenyl]-4-yl)ethyl)urea], the EC50 was ≤ 0.2 µM.

As to `C#Cc1nc(NC(=O)N[C@@H](C(N)=O)c2ccc(-c3cccc(C4(C#N)CC4)c3)cc2)cs1` [Compound A212, (R)-2-(3′-(1-Cyanocyclopropyl)-[1,1′-biphenyl]-4-yl)-2-(3-(2-ethynylthiazol-4-yl)ureido)acetamide], the EC50 is ≤ 0.2 µM.

For the molecule `C#Cc1nc(NC(=O)NCc2ccc(N3CCCC3)cc2)cs1` [Compound A30, 1-(2-Ethynylthiazol-4-yl)-3-(4-(pyrrolidin-1-yl)benzyl)urea], the EC50 was ≤ 0.2 µM.

As for `C#Cc1nc(NC(=O)NCc2ccc(-c3cccc(N4CCCC4)n3)cc2)cs1` [Compound A176, 1-(2-Ethynylthiazol-4-yl)-3-(4-(6-(pyrrolidin-1-yl)pyridin-2-yl)benzyl)urea], the EC50 was ≤ 0.2 µM.

For the molecule `C#Cc1nc(NC(=O)NC(C(N)=O)c2ccc(-c3cccc4ncsc34)cc2)cs1` (stereo not shown) [Compound A209, 2-(4-(Benzo[d]thiazol-7-yl)phenyl)-2-(3-(2-ethynylthiazol-4-yl)ureido)acetamide], the EC50 is ≤ 0.2 µM.

With `C#Cc1nc(NC(=O)N(C)[C@@H](CO)c2ccc(-c3cccc4ncsc34)cc2)cs1` [Compound A111, (R)-1-(1-(4-(Benzo[d]thiazol-7-yl)phenyl)-2-hydroxyethyl)-3-(2-ethynylthiazol-4-yl)-1-methylurea], the EC50 was ≤ 0.2 µM.

With `C#Cc1nc(NC(=O)N[C@@H](CO)c2ccc(-c3cccnc3N(C)C)c(Cl)c2)cs1` [Compound A100, (R)-1-(1-(3-Chloro-4-(2-(dimethylamino)pyridin-3-yl)phenyl)-2-hydroxyethyl)-3-(2-ethynylthiazol-4-yl)urea], the EC50 is ≤ 0.2 µM.

Take `C#Cc1nc(NC(=O)N2CCN(c3ncc(-c4cccc5ncsc45)cc3C#N)C[C@@H]2CO)cs1` [Compound B59, (R)-4-(5-(Benzo[d]thiazol-7-yl)-3-cyanopyridin-2-yl)-N-(2-ethynylthiazol-4-yl)-2-(hydroxymethyl)piperazine-1-carboxamide]: the EC50 was ≤ 0.2 µM.

Turning to `C#Cc1nc(NC(=O)N[C@@H](COC(N)=O)c2ccc(-c3cccnc3C3(C#N)CC3)cc2)cs1` [Compound A63, (R)-2-(4-(2-(1-Cyanocyclopropyl)pyridin-3-yl)phenyl)-2-(3-(2-ethynylthiazol-4-yl)ureido)ethyl carbamate], the EC50 is ≤ 0.2 µM.

As for `C#Cc1nc(NC(=O)N[C@@H](CO)c2ccc(N3CCCCCC3)cc2)cs1` [Compound A137, (R)-1-(1-(4-(Azepan-1-yl)phenyl)-2-hydroxyethyl)-3-(2-ethynylthiazol-4-yl)urea], the EC50 is ≤ 0.2 µM.

`C#Cc1nnc(NC(=O)N(C)[C@@H](CO)c2ccc(-c3ccc(F)cc3C3CC3(F)F)cn2)s1` (stereo partly drawn) [Compound A86, 1-((1R)-1-(5-(2-(2,2-Difluorocyclopropyl)-4-fluorophenyl)pyridin-2-yl)-2-hydroxyethyl)-3-(5-ethynyl-1,3,4-thiadiazol-2-yl)-1-methylurea]: the EC50 is ≤ 0.2 µM.

For the molecule `C#Cc1nc(NC(=O)N[C@@H](CO)C(=O)N2CCC3(CC2)CCC(F)(F)CC3)cs1` [Compound A158, (S)-1-(1-(9,9-Difluoro-3-azaspiro[5.5]undecan-3-yl)-3-hydroxy-1-oxopropan-2-yl)-3-(2-ethynylthiazol-4-yl)urea], the EC50 was ≤ 0.2 µM.

As to `C#Cc1nc(NC(=O)N[C@@H](COC(N)=O)c2ccc(-c3cc(C#N)ccn3)cc2)cs1` [Compound A48, (R)-2-(4-(4-Cyanopyridin-2-yl)phenyl)-2-(3-(2-ethynylthiazol-4-yl)ureido)ethyl carbamate], the EC50 is ≤ 0.2 µM.

For `C#Cc1nc(NC(=O)N[C@@H](CO)c2ccc(-c3cccc(C4CC4(F)F)c3)cc2)cs1` (stereo partly drawn) [Compound A188, 1-((1R)-1-(3′-(2,2-Difluorocyclopropyl)-[1,1′-biphenyl]-4-yl)-2-hydroxyethyl)-3-(2-ethynylthiazol-4-yl)urea], the EC50 was ≤ 0.2 µM.

For `C#Cc1nc(NC(=O)N2CCN(c3ccc(-c4cccc(N5CCCC5)c4)cc3C#N)C[C@@H]2CO)cs1` [Compound B53, (R)-4-(3-Cyano-3′-(pyrrolidin-1-yl)-[1,1′-biphenyl]-4-yl)-N-(2-ethynylthiazol-4-yl)-2-(hydroxymethyl)piperazine-1-carboxamide], the EC50 is ≤ 0.2 µM.

For the molecule `C#Cc1nc(NC(=O)N[C@@H](CO)C(=O)N2CCC3(CCC3)CC2)cs1` [Compound A153, (S)-1-(2-Ethynylthiazol-4-yl)-3-(3-hydroxy-1-oxo-1-(7-azaspiro[3.5]nonan-7-yl)propan-2-yl)urea], the EC50 is ≤ 0.2 µM.

For the molecule `C#Cc1nc(NC(=O)N[C@H](c2ccc(-c3cccc4ncsc34)cc2)C(C)O)cs1` (stereo partly drawn) [Compound A204, 1-((1R)-1-(4-(Benzo[d]thiazol-7-yl)phenyl)-2-hydroxypropyl)-3-(2-ethynyl-thiazol-4-yl)urea], the EC50 was ≤ 0.2 µM.

For `C#Cc1nc(NC(=O)N[C@@H](CO)c2ccc(N3CCCCCC3=O)cc2)cs1` [Compound A138, (R)-1-(2-Ethynylthiazol-4-yl)-3-(2-hydroxy-1-(4-(2-oxoazepan-1-yl)phenyl)-ethyl)urea], the EC50 was ≤ 0.2 µM.

Regarding `C#Cc1nc(NC(=O)NCC(=O)N2CCN(c3ccccc3C#N)CC2)cs1` [Compound A36, 1-(2-(4-(2-Cyanophenyl)piperazin-1-yl)-2-oxoethyl)-3-(2-ethynylthiazol-4-yl)urea], the EC50 was ≤ 0.2 µM.

Take `C#Cc1nc(NC(=O)N[C@@H](COC(N)=O)c2ccc(-c3ccc(F)cc3C3CC3(F)F)cn2)cs1` (stereo partly drawn) [Compound A83, (2R)-2-(5-(2-(2,2-Difluorocyclopropyl)-4-fluorophenyl)pyridin-2-yl)-2-(3-(2-ethynylthiazol-4-yl)ureido)ethyl carbamate]: the EC50 is ≤ 0.2 µM.

With `C#Cc1nc(NC(=O)NCC2CCC(c3cccc(C4(C#N)CC4)c3)CC2)cs1` (stereo not shown) [Compound A238, 1-((4-(3-(1-Cyanocyclopropyl)phenyl)cyclohexyl)methyl)-3-(2-ethynylthiazol-4-yl)urea], the EC50 is ≤ 0.2 µM.

For `C#Cc1nc(NC(=O)N[C@@H](CO)c2ccc(-c3cccc4ccnc(O)c34)c(Cl)c2)cs1` [Compound A107, (R)-1-(1-(3-Chloro-4-(1-hydroxyisoquinolin-8-yl)phenyl)-2-hydroxyethyl)-3-(2-ethynylthiazol-4-yl)urea], the EC50 is ≤ 0.2 µM.

The assay is the same for the next values; noted with them: NCI-H82 cells, 72 h incubation, cell viability by CELL-TITER GLO, top concentration 1 μM; read-out: EC50, Inhibition of NCl-H82 Cell Proliferation.
In the case of `C#Cc1nc(NC(=O)NCc2ccc(-c3cccc4ncsc34)cc2C#N)cs1` [Compound A178, 1-(4-(Benzo[d]thiazol-7-yl)-2-cyanobenzyl)-3-(2-ethynylthiazol-4-yl)urea], the EC50 is ≤ 0.2 µM.
